The text below walks through data of US11413243B2, “Fusogenic compounds for delivery of biologically active molecules” (Nitto Denko Corporation, priority 2017, dated 2022).

In this assay the test system is HSP47. To be noted: for HSP47 gene expression knockdown compared to control formulation without fusogenic compound: HEDC and S104 liposomes, all concentrations of siRNA.
The mark [1] stands for this setting: Table 3, siRNA 18 nM, rat stellate cells.
The mark [2] stands for this setting: Table 3, siRNA 75 nM, rat stellate cells.
[3] abbreviates: Table 3, siRNA 300 nM, rat stellate cells.

Each structure is given as a SMILES string. Where two headings read alike, the source gives them in different places.

Procedure: The in vitro activity for gene expression knockdown using an siRNA was measured using rat stellate cells in DMEM medium according to the following protocol: One day before the transfection, plate the cells in a 96-well plate at 3×10^3 cells per well for Stellate cells with 100 μl of medium containing 10% FBS and culture in a 37° C. incubator containing a humidified atmosphere of 5% CO2 in air. Before transfection, change medium to 90 μl of medium without antibiotics. Prepare the appropriate dilutions of the solution collected from the tubing in PBS buffer so that the addition of 10 μl into each well is sufficient to reach the desired concentration. 48 hours after transfection, wash the cells once with ice-cold PBS. Lyse the cells with 50 μl of Cell-to-Ct Lysis Buffer for 5-30 minutes at ambient temperature. Add 5 μl of Stop Solution and incubate for 2 minutes at ambient temperature. Measure mRNA level by qPCR with TAQMAN immediately. Alternatively, the samples can be frozen at −80° C. and assayed at later times. For qRT-PCR assay: Thaw all reagents on ice. Mix the pooled reagents in 0.2 ml PCR tubes. Dispense the set-up mixture into 384 well plate, 10 μl/well×3. Seal the plate with film, spin down mixture into the bottom of wells. Perform qRT-PCR assay.
In this example, an HSP47 siRNA was used to knockdown HSP47 gene. For TaqMan gene expression assays, HSP47 gene specific TaqMan probe was used.

For `CCCCC/C=C\C/C=C\CCCCCCCC(=O)OCCN(CCOC(=O)CCCCCCC/C=C\C/C=C\CCCCC)C(=O)CCC(=O)NCCCC[C@H](NC(=O)CCC(=O)N(CCOC(=O)CCCCCCC/C=C\C/C=C\CCCCC)CCOC(=O)CCCCCCC/C=C\C/C=C\CCCCC)C(=O)NCCCOCCOCCOCCCNC(=O)CCOCCOCCOCCOCCOCCC(=O)NCCCOCCOCCOCCCNC(=O)[C@H](CCCCNC(=O)CCC(=O)N(CCOC(=O)CCCCCCC/C=C\C/C=C\CCCCC)CCOC(=O)CCCCCCC/C=C\C/C=C\CCCCC)NC(=O)CCC(=O)N(CCOC(=O)CCCCCCC/C=C\C/C=C\CCCCC)CCOC(=O)CCCCCCC/C=C\C/C=C\CCCCC` [Compound R4], the “activity for gene expression knockdown in stellate cells compared to control formulation” value (FIG. 24, Table 6 formulation HEDC:S104:DOPE:CH:DMPE-PEG with 2% (of total lipids) fusogenic compound) is on record as “surprisingly increased”. The “HSP47 gene expression knockdown compared to control formulation without fusogenic compound” value (FIG. 46, fusogenic compound 2% of the total lipids) was “greatly and surprisingly increased”; the “HSP47 gene expression knockdown compared to control formulation without fusogenic compound” value (FIG. 46, fusogenic compound 10% of the total lipids) was “greatly and surprisingly increased”; the “HSP47 gene expression knockdown compared to control formulation without fusogenic compound” value (FIG. 47, fusogenic compound 2% of the total lipids) was “greatly and surprisingly increased”. The “% of Expression at Dose (nM) 18 nM” value under setting [1] was 16%. Moreover, the “% of Expression at Dose (nM) 50 nM” value (Table 3, siRNA 50 nM, rat stellate cells, 48 hours after transfection) is recorded as 44%. Further, the “% of Expression at Dose (nM) 75 nM” value under setting [2] is given as 10%. The “% of Expression at Dose (nM) 200 nM” value (Table 3, siRNA 200 nM, rat stellate cells, 48 hours after transfection) came out at 15%. Besides, the “% of Expression at Dose (nM) 300 nM” value under setting [3] is reported as 6%.

Take `CCCCC/C=C\C/C=C\CCCCCCCCOC(=O)[C@H](COC(=O)CCC(=O)NCCCCC(NC(=O)CCC(=O)OC[C@H](NC(=O)CCCCCCC/C=C\C/C=C\CCCCC)C(=O)OCCCCCCCC/C=C\C/C=C\CCCCC)C(=O)NCCCOCCOCCOCCOCCOCCCNC(=O)C(CCCNC(=O)CCC(=O)OC[C@@H](NC(=O)CCCCCCC/C=C\C/C=C\CCCCC)C(=O)OCCCCCCCC/C=C\C/C=C\CCCCC)NC(=O)CCC(=O)OC[C@@H](NC(=O)CCCCCCC/C=C\C/C=C\CCCCC)C(=O)OCCCCCCCC/C=C\C/C=C\CCCCC)NC(=O)CCCCCCC/C=C\C/C=C\CCCCC` (stereo partly drawn) [Compound T12]: the “% of HSP47 expression in Stellate Cell, Conc siRNA 18 nM” value (Table 5, siRNA 18 nM, stellate cells) is on record as 40.2%. Further, the “% of HSP47 expression in Stellate Cell, Conc siRNA 75 nM” value (Table 5, siRNA 75 nM, stellate cells) stood at 8.4%. For the same compound, for the setting “Table 5, siRNA 300 nM, stellate cells”, the “% of HSP47 expression in Stellate Cell, Conc siRNA 300 nM” value was 2.7%.

Regarding `CCC/C=C\C/C=C\CCCCCCCC(=O)OCCN(CCOC(=O)CCCCCCC/C=C\C/C=C\CCCCC)C(=O)CC[C@H](NC(=O)CCC(=O)NCCCOCCOCCOCCOCCOCCCNC(=O)CCC(=O)NC(CCC(=O)N(CCOC(=O)CCCCCCC/C=C\C/C=C\CCCCC)CCOC(=O)CCCCCCC/C=C\C/C=C\CCCCC)C(=O)N(CCOC(=O)CCCCCCC/C=C\C/C=C\CCC)CCOC(=O)CCCCCCC/C=C\C/C=C\CCCCC)C(=O)N(CCOC(=O)CCCCCCC/C=C\C/C=C\CCCCC)CCOC(=O)CCCCCCC/C=C\C/C=C\CCCCC` (stereo partly drawn) [Compound T9], the “% of Expression at Dose (nM) 18 nM” value (Table 4, siRNA 18 nM, rat stellate cells) is 100%. Further, the “% of Expression at Dose (nM) 75 nM” value (Table 4, siRNA 75 nM, rat stellate cells) is 65%. The “% of Expression at Dose (nM) 300 nM” value (Table 4, siRNA 300 nM, rat stellate cells) is on record as 36%.

In the case of `CCCCCCCCCCCCCC(=O)OCCN(CCOC(=O)CCCCCCCCCCCCC)C(=O)CCC(=O)NCCCC[C@H](NC(=O)CCC(=O)N(CCOC(=O)CCCCCCCCCCCCC)CCOC(=O)CCCCCCCCCCCCC)C(=O)NCCCOCCOCCOCCOCCOCCCNC(=O)[C@H](CCCCNC(=O)CCC(=O)N(CCOC(=O)CCCCCCCCCCCCC)CCOC(=O)CCCCCCCCCCCCC)NC(=O)CCC(=O)N(CCOC(=O)CCCCCCCCCCCCC)CCOC(=O)CCCCCCCCCCCCC` [Compound T2], under setting [1], the “% of Expression at Dose (nM) 18 nM” value turned out to be 82%. In addition, the “% of Expression at Dose (nM) 75 nM” value under setting [2] is given as 70%. Moreover, under setting [3], the “% of Expression at Dose (nM) 300 nM” value worked out at 44%.
